We go through three compounds from patent publication US20090227521A1, “USE OF COMPOUNDS IN THE TREATMENT OF ISCHEMIA AND NEURODEGENERATION” (priority 2006, published 2009).

One test deals with EL-4.Ub-R-GFP-Q112 cells. The experiment in a line: Ub-R-GFP-Q112 poly-Glutamine reporter substrate degradation in stably transfected EL-4 cells (flow cytometry). The test is classed as cell-based, mouse. The conditions noted are these: for Ub-R-GFP-Q112 substrate level: up to 72 hours, serum-free AIM-V medium. From the text: (§1) Cells and Culture Conditions. EL-4 is a Benzpyrene-induced lymphoma cell line derived from the C57BI/6 mouse strain. EL-4.wt and EL-4.TPPII^i are EL-4 cells transfected with the pSUPER vector (Brummelkamp, T R, Bernards, R, Agami, R. A system for stable expression of short interfering RNAs in mammalian cells. Science 2002; 296:550-3), empty versus containing the siRNA directed against TPPII. HeLa cells are human cervical carcinoma cells. For induction of stress, cells were starved by growth in 50%-75% Phosphate Buffered Saline (PBS) or gamma-irradiated 250-2000 Rad's; and incubated at 37° C. and 5.3% CO2. Our flow cytometric data represent live cells as determined by flow cytometric gating with Propidium Iodide (PI). For generation of stable transfectants, 5×10^6 cells were washed in PBS, then resuspended into 500 micro-I of PBS in a Bio-Rad gene-pulser and pulsed with 10 micro-g DNA and 250 V at 960 micro-F; and selected by resistance to G418. UbGV76-GFP is a ubiquitin-fusion construct that creates a rapidly degraded GFP molecule for monitoring 26S proteasome activity in live cells through flow cytometry (Dantuma, N. P, Lindsten, K., Glas, R., Jellne, M., and Masucci, M. G. 2000. Short-lived green fluorescent proteins for quantifying ubiquitin/proteasome-dependent proteolysis in living cells. Nat. Biotechnol. 18:538-43). Ub-R-GFP is a similar vector that also encodes a highly unstable GFP molecule degraded through the ubiquitin-proteasome pathway. Ub-R-GFP-Q112 is the same substrate but contains an extended C-terminal with 112 glutamines (Verhoef, L. G., Lindsten, K., Masucci, M. G. and Dantuma, N. P. 2002. Aggregate formation inhibits proteasomal degradation of polyglutamine proteins. Hum Mol. Genet. 11:2689-700).
Flow Cytometry. Fluorescence was quantified by a FACScalibur. Flow cytometric cell sorting of live cells was performed by incubation of cells for 5 minutes with 2 micro-g/ml of Propidium Iodide (PI) and subsequent sorting into PI^+ and PI^− populations with a FACSvantage. […]
A general note: Flow cytometry measures light scatter and fluorescence of single cells or particles in a stream.

The test system of a further test is EL-4.Ub-R-GFP cells. The experiment in a line: GFP reporter substrate fluorescence in EL-4.Ub-R-GFP cells (flow cytometry). The format is cell-based, mouse. The conditions noted are these: live cells, proteasomal inhibitor treatment.
From the text: as §1, with “Ub-R-GFP is a similar vector that also encodes a highly unstable GFP molecule degraded through the ubiquitin-proteasome pathway. Ub-R-GFP-Q112 is the same substrate but contains an extended C-terminal with 112 glutamines (Verhoef, L. G., Lindsten, K., Masucci, M. G. and Dantuma, N. P. 2002. Aggregate formation inhibits proteasomal degradation of polyglutamine proteins. Hum Mol. Genet. 11:2689-700).” left out
(§2) Flow Cytometry. Fluorescence was quantified by a FACScalibur. […]

Test [1] has as its system EL-4 cells. The test is described as follows: Western blotting of TPPII, proteasome alpha-3 and p53 in stressed EL-4 cells. The format is cell-based, mouse.
From the text: as §1, with “Ub-R-GFP-Q112 is the same substrate but contains an extended C-terminal with 112 glutamines (Verhoef, L. G., Lindsten, K., Masucci, M. G. and Dantuma, N. P. 2002. Aggregate formation inhibits proteasomal degradation of polyglutamine proteins. Hum Mol. Genet. 11:2689-700).” left out
Protein Purification, Peptidase Assays and Analysis of DNA Fragmentation. […] Cleavage activity was measured by emission at 460 nm in a LS50B Luminescence Spectrometer (Perkin Elmer, Boston, Mass.). […]
Antibodies and Antisera. The following molecules were detected by the antibodies specified: GFP by rabbit anti-GFP serum (Molecular Probes Europe, Breda, The Netherlands); 19S proteasomal complexes by anti-Rpt6 (19S base ATPase subunit), 20S proteasomal complexes by (Affinity, Exeter, UK); For detection of TPPII we used chicken anti-TPPII serum (Immunsystem, Uppsala, Sweden). […]
(In general: Immunoblotting shows a protein as a band on a membrane.)

A further test has as its system HeLa.UbGV76-GFP cells. The test is described as follows: GFP reporter substrate fluorescence in HeLa.UbGV76-GFP cells (flow cytometry). To be noted: live cells, proteasomal inhibitor treatment. The format is cell-based, human.
From the text: as §1, with “Ub-R-GFP is a similar vector that also encodes a highly unstable GFP molecule degraded through the ubiquitin-proteasome pathway. Ub-R-GFP-Q112 is the same substrate but contains an extended C-terminal with 112 glutamines (Verhoef, L. G., Lindsten, K., Masucci, M. G. and Dantuma, N. P. 2002. Aggregate formation inhibits proteasomal degradation of polyglutamine proteins. Hum Mol. Genet. 11:2689-700).” left out
as §2

For test [2], the system named is EL-4 cells. The experiment in a line: Nuclear localization of proteasomes in starved EL-4 cells (immunohistochemistry). The test is classed as cell-based, mouse. To be noted: starvation, 100 micro-M.
From the text: as §1, with “Ub-R-GFP is a similar vector that also encodes a highly unstable GFP molecule degraded through the ubiquitin-proteasome pathway. Ub-R-GFP-Q112 is the same substrate but contains an extended C-terminal with 112 glutamines (Verhoef, L. G., Lindsten, K., Masucci, M. G. and Dantuma, N. P. 2002. Aggregate formation inhibits proteasomal degradation of polyglutamine proteins. Hum Mol. Genet. 11:2689-700).” left out

A further test has as its system HeLa cells. The test is described as follows: Nuclear localization of proteasomes in starved HeLa cells (immunohistochemistry). To be noted: starvation, 100 micro-M. The format is cell-based, human.
From the text: as §1, with “Ub-R-GFP is a similar vector that also encodes a highly unstable GFP molecule degraded through the ubiquitin-proteasome pathway. Ub-R-GFP-Q112 is the same substrate but contains an extended C-terminal with 112 glutamines (Verhoef, L. G., Lindsten, K., Masucci, M. G. and Dantuma, N. P. 2002. Aggregate formation inhibits proteasomal degradation of polyglutamine proteins. Hum Mol. Genet. 11:2689-700).” left out

For another test, the system named is Subtilisin. To be noted: bacterial homologue of eukaryotic TPP II; cited from earlier work.
For another test, the target named is T1, TPP II (Mus musculus, UniProt Q64514).
T1 construct: 1 ug of high molecular weight protein was used as enzyme in peptidase assays; endogenous in cells
T1 sequence (Q64514 2-1262 limits assumed): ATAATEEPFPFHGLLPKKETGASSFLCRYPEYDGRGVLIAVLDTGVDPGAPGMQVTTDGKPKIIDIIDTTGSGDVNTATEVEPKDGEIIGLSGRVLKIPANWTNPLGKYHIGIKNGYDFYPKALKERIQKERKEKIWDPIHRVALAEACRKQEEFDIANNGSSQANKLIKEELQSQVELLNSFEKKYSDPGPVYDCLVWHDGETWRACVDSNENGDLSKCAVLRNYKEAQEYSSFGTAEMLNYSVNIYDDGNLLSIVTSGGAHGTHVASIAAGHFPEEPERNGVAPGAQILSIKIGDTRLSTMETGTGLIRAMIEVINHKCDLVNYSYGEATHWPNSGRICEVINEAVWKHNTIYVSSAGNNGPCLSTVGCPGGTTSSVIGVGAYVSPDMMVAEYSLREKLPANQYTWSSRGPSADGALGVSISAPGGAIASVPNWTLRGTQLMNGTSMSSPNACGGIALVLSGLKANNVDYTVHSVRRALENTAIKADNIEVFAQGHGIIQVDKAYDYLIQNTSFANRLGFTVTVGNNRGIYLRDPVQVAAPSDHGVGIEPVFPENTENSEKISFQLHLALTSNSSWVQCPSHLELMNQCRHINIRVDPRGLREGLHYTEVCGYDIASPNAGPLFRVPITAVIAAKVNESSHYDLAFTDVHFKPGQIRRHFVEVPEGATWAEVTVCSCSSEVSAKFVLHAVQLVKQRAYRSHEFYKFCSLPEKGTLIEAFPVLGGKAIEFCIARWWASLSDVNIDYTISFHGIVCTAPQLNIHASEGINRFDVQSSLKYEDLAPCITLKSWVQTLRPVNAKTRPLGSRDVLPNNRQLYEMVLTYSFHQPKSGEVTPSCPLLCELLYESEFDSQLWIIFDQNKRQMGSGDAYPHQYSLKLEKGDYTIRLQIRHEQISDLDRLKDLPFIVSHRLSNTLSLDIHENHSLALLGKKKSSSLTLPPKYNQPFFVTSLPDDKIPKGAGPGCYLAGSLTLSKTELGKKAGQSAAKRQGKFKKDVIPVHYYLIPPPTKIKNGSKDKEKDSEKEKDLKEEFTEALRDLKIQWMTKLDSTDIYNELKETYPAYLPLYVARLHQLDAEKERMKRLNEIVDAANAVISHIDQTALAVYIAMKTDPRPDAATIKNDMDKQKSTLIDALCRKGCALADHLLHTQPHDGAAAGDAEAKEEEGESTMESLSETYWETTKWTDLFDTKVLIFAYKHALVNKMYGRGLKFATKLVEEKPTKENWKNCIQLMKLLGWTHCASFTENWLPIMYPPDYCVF
The experiment in a line: Inhibition of cleavage of AAF-AMC by enriched TPP II (peptidase assay). To be noted: for cleavage of AAF-AMC, mean: mean of three. The test is classed as biochemical. The method, then: It is not necessary to achieve a particularly high level of purification, and conventional simple techniques can be used to obtain TPP II of sufficient quality to use in a screening method. In one non-limiting example of purification of TPP II, 100×10^6 cells (such as EL-4 cells) were sedimented and lysed by vortexing in glass beads and homogenisation buffer (50 mM Tris Base pH 7.5, 250 mM Sucrose, 5 mM MgCl2, 1 mM DTT). Cellular lysates were subjected to differential centrifugation; first the cellular homogenate was centrifuged at 14,000 rpm for 15 min, and then the supernatant was transferred to ultra-centrifugation tubes. Next the sample was ultra-centrifugated at 100,000×g for 1 hour, and the supernatant (denoted as cytosol in most biochemical literature) was subjected to 100,000×g centrifugation for 5 hours, which sedimented high molecular weight cytosolic proteins/protein complexes. The resulting pellet dissolved in 50 mM Tris Base pH 7.5, 30% Glycerol, 5 mM MgCl2, and 1 mM DTT, and 1 ug of high molecular weight protein was used as enzyme in peptidase assays.
It is possible to test the activity of TPP II using for example the substrate AAF-AMC (Sigma, St. Louis, Mo.). This may for example be used at 100 uM concentration in 100 ul of test buffer composed of 50 mM Tri Base pH 7.5, 5 mM MgCl2 and 1 mM DTT. It is possible to stop reactions using dilution with 900 ul 1% SDS solution. Cleavage activity may be measured for example by emission at 460 nm in a LS50B Luminescence Spectrometer (Perkin Elmer, Boston, Mass.).
Protein Purification, Peptidase Assays and Analysis of DNA Fragmentation. 100×10^6 cells were sedimented and lysed by vortexing in glass beads and homogenisation buffer (50 mM Tris Base pH 7.5, 250 mM Sucrose, 5 mM MgCl2, 1 mM DTT). Cellular lysates were submitted to differential centrifugation where a supernatant from a 1 hour centrifugation at 100,000×g (cytosol) was submitted to 100,000×g centrifugation for 3-5 hours, which sedimented high molecular weight cytosolic proteins/protein complexes. The resulting pellet dissolved in 50 mM Tris Base pH 7.5, 30% Glycerol, 5 mM MgCl2, and 1 mM DTT, and 1 micro-g of high molecular weight protein was used as enzyme in peptidase assays or in Western blotting for TPP II expression. To test the activity of TPP II we used the substrate AAF-AMC (Sigma, St. Louis, Mo.), at 100 micro-M concentration in 100 micro-I of test buffer composed of 50 mM Tri Base pH 7.5, 5 mM MgCl2 and 1 mM DTT. Cleavage activity was measured by emission at 460 nm in a LS50B Luminescence Spectrometer (Perkin Elmer, Boston, Mass.). For analysis of DNA fragmentation cells were seeded in 12-well plates at 10^6 cells/ml and exposed to 25 micro-M etoposide, a DNA topoisomerase II inhibitor commonly used as an apoptosis-inducing agent, to starvation (50% PBS). Cells were seeded at 10^6 cells/ml in 12-well plates and incubated for the indicated times, usually 18-24 hours. DNA from EL-4 control and adapted cells was purified by standard chloroform extraction, and 2.5 micro-g of DNA was loaded on 1.8% agarose gel for detection of DNA from apoptotic cells.
TPP II protein was enriched, and then a TPP II-preferred fluorogenic substrate AAF-AMC was used. 100×10^6 cells were sedimented and lysed by vortexing in glass beads and homogenisation buffer (50 mM Tris Base pH 7.5, 250 mM Sucrose, 5 mM MgCl2, 1 mM DTT). Cellular lysates were subjected to differential centrifugation; first the cellular homogenate was centrifuged at 14,000 rpm for 15 min, and then the supernatant was transferred to ultra-centrifugation tubes. Next the sample was ultra-centrifugated at 100,000×g for 1 hour, and the supernatant (denoted as cytosol in most biochemical literature) was subjected to 100,000×g centrifugation for 5 hours, which sedimented high molecular weight cytosolic proteins/protein complexes. […]

Values joined by “and” are separate entries in the source; they are usually repeats but may differ in a detail not shown here. Equal entries are not always repeated. *: point of attachment. Cbz = O=C(OCc1ccccc1)*

Take `CC(C)C[C@@H](/C=C/S(C)(=O)=O)NC(=O)[C@H](CC(C)C)NC(=O)[C@H](CC(C)C)NC(=O)Cc1cc(I)c(O)c([N+](=O)[O-])c1` [NLVS, 4-hydroxy-5-iodo-3-nitrophenylacetyl-Leu-Leu-Leu-vinyl sulphone]: the “accumulation of Ub-R-GFP-Q112 substrate not degraded” value in the test with EL-4.Ub-R-GFP-Q112 cells (treatment with NLVS) is on record as “further increased accumulation”. Further, the “steady state levels of GFP-fluorescence” value in the test with EL-4.Ub-R-GFP cells and in the test on HeLa.UbGV76-GFP cells was “strong increase” in each case. The “rapid TPPII down regulation during wortmannin treatment” value in the test with EL-4 cells [1] (starved EL-4 cells, with 1 micro-M wortmannin) was “prevented”.

`CCCCNC(=O)[C@@H]1Cc2ccccc2N1C(=O)[C@@H](N)CC` [Butabindide]: the Ub-R-GFP-Q112 substrate level result in the test on EL-4.Ub-R-GFP-Q112 cells (100 micro-M) is “gradual decline”. Moreover, in the test with EL-4 cells [1] (gamma-irradiated (500 Rad) EL-4.wt cells, 100 micro-M from 2 hours before onset), the “stabilization of p53” value is listed as “prevent”. In addition, the “nuclear localization of proteasomes” value in the test on EL-4 cells [2] and in the test with HeLa cells was “inhibited nuclear localization of proteasomes” throughout.

Consider Cbz-Gly-Leu-Ala-OH [Z-GLA-OH], for which the Ub-R-GFP-Q112 substrate level entry in the test with EL-4.Ub-R-GFP-Q112 cells (25-microM) was “gradual decline”. Besides, the TPPII expression entry in the test on EL-4 cells [1] (gamma-irradiated (500 Rad) EL-4.wt cells, 25 micro-M) is “strong reduction”. In the test with Subtilisin, the “inhibition of Subtilisin” value was “inhibit”. The “cleavage of AAF-AMC, single determination” value at TPP II (compound at 1 nM) is 32.54 fluorometric units and 32.61 fluorometric units and 33.41 fluorometric units; on TPP II (compound at 10 nM), 21.74 fluorometric units and 21.93 fluorometric units and 24.44 fluorometric units; at TPP II (compound at 100 nM), 14.43 fluorometric units and 14.26 fluorometric units and 14.37 fluorometric units; on TPP II (compound at 1 uM), 11.43 fluorometric units and 11.9 fluorometric units and 11.46 fluorometric units; on TPP II (compound at 10 uM), 6.47 fluorometric units and 7.66 fluorometric units and 7.49 fluorometric units; at TPP II (compound at 100 uM, arbitrary but relative units, lower = more inhibition), 1.14 fluorometric units and 1.44 fluorometric units and 1.55 fluorometric units. For the same compound, the “cleavage of AAF-AMC, mean” value is 32.85 fluorometric units at TPP II (compound at 1 nM); 22.70 fluorometric units at TPP II (compound at 10 nM); 14.35 fluorometric units at TPP II (compound at 100 nM); 11.60 fluorometric units on TPP II (compound at 1 uM); 7.21 fluorometric units at TPP II (compound at 10 uM); 1.38 fluorometric units on TPP II (compound at 100 uM).
